The source of these data is the METLIN SMRT retention time set (Domingo-Almenara et al. 2019).

SMILES strings stand for the structures.

This data set can be described thus: gradient 5% acetonitrile 3 min, to 50% in 2 min, to 85% in 15 min, held 3 min, 100 µL/min. To be noted: column: Zorbax Extend-C18 2.1 x 50 mm; eluents: water / acetonitrile, 0.1% formic acid. In short, it runs like this:
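The mobile phases were water and acetonitrile, each with 0.1% formic acid, pumped at 100 μL/min through a Zorbax Extend-C18 column (2.1 × 50 mm, 1.8 μm). Pure standards were injected as mixtures of ~100 molecules and detected by a quadrupole time-of-flight mass spectrometer in positive and negative ionization mode. Retention time came from computationally picked adduct peaks, each inspected by hand.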
As for `CCCCC(=O)Nc1nc(-c2ccc3c(c2)N(C)C(=O)C(C)O3)cs1` (stereo not given), the RP-LC retention time was determined as 953 s.
With `CCN(CC)S(=O)(=O)c1ccc2c(c1)cc(C(=O)NCCc1c[nH]c3ccccc13)n2C`, the RP-LC retention time was 1010 s.
As to `COc1ccc(Cl)cc1C(=O)NCCCOc1cccc2cccnc12`, the RP-LC retention time turned out to be 611 s.
`Cc1nnsc1C(=O)NCC1(O)CCCC1` registered an RP-LC retention time of 602 s.
As for `COc1ccc(NC(=O)N2CCN(c3nc4ccncc4n(CC(C)C)c3=O)CC2)cc1`, the figure is 587 s; as for `C=C(CN(C)C)C(=O)c1ccccc1Cl`, 594 s.
`Cc1noc(C)c1S(=O)(=O)NCC1CCN(C(=O)c2cccn(C)c2=O)CC1` gave an RP-LC retention time of 599 s.
As for `COc1cc(OC)cc(C(=O)Nc2cccc(C(C)=O)c2)c1`, the figure is 753 s; as for `Cc1cc(C)cc(Oc2nccn3c(=O)n(CC(=O)Nc4cc(F)ccc4F)nc23)c1`, 950 s; as for `CC(C)c1ccc(CNC(=O)C2CCN(C(=O)c3ncn4c3COC(c3ccccc3)C4)CC2)cc1` (stereo not given), 892 s.
`CCCNC(=O)C1CCCN(c2nc3ncn(CC(=O)NCc4ccccc4)c(=O)c3s2)C1` (stereo not given) displayed an RP-LC retention time of 669 s.
In the case of `O=c1cc(-c2ccccc2)oc2cc(O)c(O)cc12`, the RP-LC retention time amounted to 750 s.
With `CCN(CC)c1nc2ccsc2c(=O)n1CC(=O)NCc1ccc(F)cc1F`, the RP-LC retention time turned out to be 868 s.
`CCc1ccc(N2C(=O)CN(S(C)(=O)=O)CC2(C)C(=O)NCc2ccc(C)cc2)cc1` (stereo not given): the RP-LC retention time was 898 s.
As for `CCN1C(=O)C(C)(C(=O)NCc2ccccc2)Oc2cccnc21` (stereo not given), the figure is 812 s; as for `Cc1nc(N2CCN(CCO)CC2)nc2c1C(=O)CC(c1cccc(Cl)c1)C2` (stereo not given), 693 s; as for `Cc1cncn(CC(=O)NCc2cccs2)c1=O`, 580 s.
`COCc1cn(C2CN(C(=O)c3ccc(OC)nc3)C2)nn1`: the RP-LC retention time turned out to be 610 s.
As for `O=C(Nc1ccc2c(c1)OCCO2)c1ccnc(N2CCNC(c3ccccc3)C2)c1` (stereo not given), the figure is 638 s; as for `CC1CCCN(c2nc(=O)n(CC(=O)Nc3ccc(F)cc3)c3ccccc23)C1` (stereo not given), 841 s.
`COc1ccc(CC(=O)Nc2cc3c(cc2SC(C)C)n(C)c(=O)n3C)cc1`: the RP-LC retention time worked out at 923 s.
In turn, `Cn1cc(-c2ccncc2)cc1C(=O)N1CCN(c2ccccc2Cl)CC1` had an RP-LC retention time of 671 s.
As for `CC(C)C(=O)Nc1ccc(CCc2nc3ccc(C(=O)NC4CCCCC4)cc3[nH]2)cc1`, the figure is 672 s; as for `CCC(=O)N(CC(=O)N1CCc2sccc2C1COc1ccccc1OC)C1CC1` (stereo not given), 871 s.
Take `Cc1cc(C)c(S(=O)(=O)N2CCC(n3cnc4c(C)cccc4c3=O)CC2)cc1C`: the RP-LC retention time is 1120 s.
Regarding `Cc1cc(C)c2c(n1)sc1c(=O)n(CC(=O)Nc3ccc(F)c(F)c3)c(C)nc12`, the RP-LC retention time is 910 s.
`O=C(NC1CCCCCCC1)C1CCN(Cc2cc3ccccc3n2Cc2cccc(Cl)c2)CC1` yielded an RP-LC retention time of 930 s.
For `Cc1nc(-c2cc(S(=O)(=O)Nc3cccc(Cl)c3C)c(C)s2)cs1`, the RP-LC retention time was 1120 s.
`Cc1cnc(C)n1C1CCN(C(=O)c2cccn2C)C1` (stereo not given): the RP-LC retention time was determined as 580 s.
Turning to `COc1ccc(-c2cc3c(=O)n(Cc4ccc(F)cc4)ccn3n2)cc1OC`, the RP-LC retention time turned out to be 913 s.
`O=S(=O)(Nc1ccccc1)c1ccc(-c2nnc(C3CCC3)o2)o1` gave an RP-LC retention time of 883 s.
Consider `CC(=O)N1CCc2cc(N3CC(C(=O)NCc4cc(F)cc(F)c4)CC3=O)ccc21` (stereo not given), for which the RP-LC retention time worked out at 690 s.
Compound `COc1ccccc1CCC(=O)N1CCCn2nc(-c3cccs3)cc2C1` gave an RP-LC retention time of 702 s.
`CCCn1cc(CCNS(=O)(=O)c2ccc(C)c(Cl)c2)c2cccnc21` returned an RP-LC retention time of 939 s.
In turn, `COC(=O)C1=C(COc2ccc(C)cc2)NC(=O)NC1c1ccc(OC)c(OC)c1` (stereo not given) came in with an RP-LC retention time of 976 s.
The compound `O=C(NCc1nc2ccccc2[nH]1)c1ccc(OCC(=O)C2CC2)cc1` displayed an RP-LC retention time of 561 s.
Consider `CCc1cc(C(=O)Nc2cccc(F)c2)nc2ccnn12`, for which the RP-LC retention time was found to be 998 s.
With `Cc1ccc(-n2cc(C(=O)NCCCOC(C)C)nn2)cc1`, the RP-LC retention time stood at 810 s.
The compound `CC(C)(N)C(=O)N[C@H](COCc1ccccc1)C(=O)N1CCC2(CC1)CN(S(C)(=O)=O)c1ccccc12` came in with an RP-LC retention time of 777 s.
The compound `Cc1ccc(Nc2c(-c3cccc(O)c3)nc3ncccn23)cc1C` had an RP-LC retention time of 705 s.
The compound `Cn1cc2c(n1)c(=O)n(Cc1ccc(F)cc1)c(=O)n2CC(=O)Nc1cc(F)ccc1F` yielded an RP-LC retention time of 841 s.
As to `Cc1ccsc1C(=O)Nc1ccc2ncnc(N3CCCCC3)c2c1`, the RP-LC retention time worked out at 687 s.
With `O=C(NC1CC1)c1nc(C(=O)N2CCN(C3CCCCC3)CC2)cs1`, the RP-LC retention time is 601 s.
Regarding `Cc1nc(C(=O)Nc2cccc(C(F)(F)F)c2)c(C)o1`, the RP-LC retention time was found to be 988 s.
In the case of `CCCCNC(=O)Cc1nnc(-c2cccc(F)c2)o1`, the RP-LC retention time was 731 s.
Consider `CCCC(NC(=O)c1ccc(OCC)c(OCC)c1)C(=O)Nc1nc2ccccc2[nH]1` (stereo not given), for which the RP-LC retention time was 733 s.
`CCc1cccc(Nc2ncccc2S(N)(=O)=O)c1` showed an RP-LC retention time of 889 s.
As for `COc1ccc(-c2c(C(=O)Nc3cc(OC)ccc3OC)nc3ccccn23)cc1`, the figure is 1030 s; as for `CN1C(=O)c2cc(C(=O)NCCc3ccccc3)nn2CC1(C)C(=O)NCc1ccccc1` (stereo not given), 769 s; as for `CCOc1ccc(NS(=O)(=O)c2cc(C(=O)N3CCN(c4ccc(C)cc4C)CC3)n[nH]2)cc1`, 1030 s.
For `COc1ccc2c(c1)C1(CCN(C(=O)c3ccc(C)c(F)c3)C1)C(=O)N2C` (stereo not given) the value was 610 s; for `COc1ccc(N2CC(C(=O)N3CCC(C(=O)NC4CCS(=O)(=O)C4)CC3)CC2=O)cc1` (stereo not given), 603 s; for `O=C(Cn1cnc2c(nc3n2CCCCC3)c1=O)N1CCN(C2CCCCC2)CC1`, 585 s.
Regarding `Cc1ccc(NC(=O)N2CCCC(Cn3cnc4cccnc43)C2)cc1C` (stereo not given), the RP-LC retention time was determined as 719 s.
`COc1ccc(-c2nnc(-c3ccc(C)c(S(=O)(=O)N4CCOCC4)c3)o2)cc1OC` yielded an RP-LC retention time of 844 s.
Compound `CCOC(=O)C(C)Sc1nnc(NC(=O)Cc2ccc(OC)cc2)s1` (stereo not given) displayed an RP-LC retention time of 806 s.
`CCc1ccc(S(=O)(=O)N2CC=C(c3cn(C)c4ncccc34)CC2)cc1` showed an RP-LC retention time of 1100 s.
On to `CCOc1ccc(S(=O)(=O)N2CCCC(C(=O)N3CCN(c4ccccc4)CC3)C2)cc1` (stereo not given), for which the RP-LC retention time amounted to 1020 s.
Turning to `CCc1noc(NC(C)=O)c1-c1ccc(OC)c(S(=O)(=O)Nc2ccc(OC)c(OC)c2)c1`, the RP-LC retention time was determined as 688 s.
In turn, `O=C(Cn1c(=O)cc(-c2nc(C3CC3)no2)c2ccccc21)NCc1ccccc1F` returned an RP-LC retention time of 902 s.
Regarding `Cn1cc(CCN2CCC(C(=O)NCc3ccc(F)cc3Cl)CC2)c2cccnc21`, the RP-LC retention time was determined as 640 s.
The compound `O=C(Cn1cccc1-c1nnc(-c2ccccc2)o1)Nc1cccc(F)c1` showed an RP-LC retention time of 960 s.
`CN1CC(c2nc(C3CC3)no2)C2(CCN(C(=O)c3ccc4c(c3)OCO4)CC2)C1` (stereo not given) displayed an RP-LC retention time of 609 s.
Take `COc1ccccc1CNC(=O)CN1CCN(Cc2ccccc2)C1=O`: the RP-LC retention time stood at 773 s.
As to `COCC(=O)N1CCC(N2C[C@H](O)C[C@H]2C(=O)NC2CCCCC2)CC1`, the RP-LC retention time was found to be 573 s.
For the compound `CC(C)c1ccc(NC(=O)C(=O)NC2CC(C)(C)NC(C)(C)C2)cc1`, the RP-LC retention time was found to be 712 s.
The compound `CCOc1ccc(CNC(=O)C2CCN(c3cnc4nccnc4c3)CC2)cc1` showed an RP-LC retention time of 698 s.
Compound `CCN1CCN(c2nnc(-c3nc(C4CC4)no3)c3ccccc23)CC1` registered an RP-LC retention time of 622 s.
Turning to `Cc1nc(C)c2c(n1)N(CC1CCCCC1)C(=O)CC2`, the RP-LC retention time was found to be 730 s.
For `O=C(NCC1OCCc2ccccc21)C(=O)Nc1ccccc1` (stereo not given) the value was 956 s.
Regarding `COc1c(C(=O)NC(C)(C)C)sc2cccc(F)c12`, the RP-LC retention time amounted to 1110 s.
Consider `COCCN1C(=O)CCc2cc(NS(=O)(=O)c3ccc(C)c(C)c3)ccc21`, for which the RP-LC retention time came out at 816 s.
For `CS(=O)(=O)N1CCC(C(=O)Nc2nc3c(s2)COCC3)CC1` the value was 604 s; for `COc1ccc(NC(=O)CN2C(=O)NC3(CCC(C)CC3)C2=O)c(OC)c1` (stereo not given), 827 s.
In turn, `CNC(=O)NC(=O)COc1cc(=O)n2cccc(C)c2n1` came in with an RP-LC retention time of 579 s.
Turning to `COCCOC1CCOC2(CCN(S(=O)(=O)c3cccc(OC)c3)CC2)C1` (stereo not given), the RP-LC retention time was 818 s.
In turn, `CCOC(=O)C1CCN(C(=O)C2CCN(c3cncnc3N3CCCC3)CC2)CC1` returned an RP-LC retention time of 629 s.
As for `Cc1nc(-c2noc(-c3ccncc3)n2)cn1CC(=O)Nc1cccc(Cl)c1`, the figure is 760 s.
For `Cc1cccc(-c2nc(-c3ccc(-n4cccn4)nc3)no2)c1`, the RP-LC retention time is 1330 s.
The compound `Cc1cc(S(=O)(=O)C(CNC(=O)c2cccs2)c2ccco2)ccc1F` (stereo not given) yielded an RP-LC retention time of 815 s.
